As a reminder, the AC50 is the concentration giving half of the maximal activity seen. As usually defined, the EC50 is the concentration that produces a half-maximal response. As a reminder, the CC50 is the concentration that lowers cell viability or growth by half.

Consider seven molecules from ChEMBL document CHEMBL1201862, “PubChem BioAssay data set” (2004).

Structures are written as SMILES. The source made the active and inactive calls.

One test deals with Protein Wnt-3a (Mus musculus, UniProt P27467). As to the kind of experiment: Wnt3a-driven reporter signaling inhibition, dose response, selectivity assay for Gli-SUFU antagonist project, Wnt-LIGHT cells, luminescence (AID 651570).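 Also: Wnt-LIGHT reporter cells stimulated with conditioned medium from Wnt3a-producing cells.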 It counts as functional. The note with it: read-out: IC50_Mean.
The nature of test [1]: HepG2 cell cytotoxicity, dose response, cytotoxicity control for Shn3 inhibitor project, CellTiter-Glo, cherry-picked (AID 624134). It counts as functional, cell-based. (In general: In ATP-based viability assays light output follows the ATP content of the culture.)
Test [2] is described as follows: Shn3 3'UTR reporter inhibitors, dose response, cell-based, Clone20 osteoblasts, firefly luciferase, cherry-picked (AID 624132).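 Also: firefly luciferase luminescence from reporter carrying the Shn3 3'UTR in osteoblasts.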 The format is functional.
The target of test [3] is T1, Heat shock factor protein 1 (Mus musculus, UniProt P38532).
T1 sequence (P38532 whole entry): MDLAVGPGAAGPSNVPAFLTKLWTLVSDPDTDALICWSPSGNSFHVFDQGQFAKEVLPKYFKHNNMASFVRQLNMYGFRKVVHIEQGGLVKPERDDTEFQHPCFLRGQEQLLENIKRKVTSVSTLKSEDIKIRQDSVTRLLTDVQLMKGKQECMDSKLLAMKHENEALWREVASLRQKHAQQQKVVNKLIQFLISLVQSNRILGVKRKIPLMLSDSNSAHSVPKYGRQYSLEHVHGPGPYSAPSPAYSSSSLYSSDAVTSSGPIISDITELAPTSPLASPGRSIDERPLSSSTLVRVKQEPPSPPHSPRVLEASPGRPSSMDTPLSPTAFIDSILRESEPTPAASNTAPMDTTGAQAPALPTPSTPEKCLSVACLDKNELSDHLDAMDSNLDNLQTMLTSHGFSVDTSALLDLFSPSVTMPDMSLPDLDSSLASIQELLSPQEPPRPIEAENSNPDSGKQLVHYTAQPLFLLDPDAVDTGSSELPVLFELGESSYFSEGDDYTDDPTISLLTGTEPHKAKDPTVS
As to the kind of experiment: inhibition of MG132-induced HSE-luciferase signal, confirmation, cell-based, NIH3T3, luminescence, dose retest (AID 2382).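 Also: NIH3T3 fibroblasts with HSF1-driven luciferase reporter stressed by proteasome inhibitor MG132; luminescence from HSF1-driven luciferase expression after 8 hours of MG132 stress.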 The format is functional.

Test [4] is described as follows: cells. The format is functional.
Test [5] is described as follows: inhibitors of clade B AD8 Env fusion, dose response, cell-based, cherry-pick (AID 652062).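 Also: luciferase signal from cell-cell fusion driven by HIV-1 clade B AD8 Env; potency is for inhibitors of fusion seen as a drop in luminescence.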 It counts as functional.
Test [6] is described as follows: control 3'UTR Renilla luciferase suppression, dose response, counter-screen for Shn3 inhibitor project, cell-based, Clone20-Shn3RL, cherry-picked (AID 624133). The format is functional.
Test [7] in a line: HEp-2 cell cytotoxicity, dose response, cytotoxicity control for RSV inhibitor project, HTS (AID 2410). It counts as functional. As to conditions: human respiratory syncytial virus.
Test [8] can be described thus: Luminescence Cell-Based Dose Response HTS to Identify Inhibitors of 5'UTR Stem-Loop Driven Prion Protein mRNA Translation in H4 Neuroglioblastoma Cells. [Related pubchem assays: 1827 (Project Summary), 1813 (Primary HTS)]. The format is functional.
Another test deals with Phospholipase A2 (Homo sapiens, UniProt P04054). The format is functional.
A short description of test [9]: inhibitors of firefly luciferase expression or activity, dose response, H4 neuroglioma cells, luminescence (AID 1990). It counts as functional, cell-based.
The next test addresses T2, Cysteine protease ATG4B (Homo sapiens, UniProt Q9Y4P1).
T2 sequence (Q9Y4P1 whole entry): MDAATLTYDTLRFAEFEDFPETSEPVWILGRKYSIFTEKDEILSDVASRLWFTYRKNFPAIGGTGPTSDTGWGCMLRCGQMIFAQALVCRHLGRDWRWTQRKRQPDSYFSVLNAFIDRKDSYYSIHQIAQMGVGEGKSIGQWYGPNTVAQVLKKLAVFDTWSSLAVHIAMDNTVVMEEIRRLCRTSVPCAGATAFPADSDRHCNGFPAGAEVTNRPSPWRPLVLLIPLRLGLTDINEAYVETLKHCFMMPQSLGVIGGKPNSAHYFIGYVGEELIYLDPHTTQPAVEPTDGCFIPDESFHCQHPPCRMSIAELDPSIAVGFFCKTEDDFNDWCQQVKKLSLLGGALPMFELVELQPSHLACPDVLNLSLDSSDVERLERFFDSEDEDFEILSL
It counts as functional.

A further test deals with Vero. As to the kind of experiment: cells. The format is functional, cell-based. The note with it: Chlorocebus sabaeus.
The nature of test [10]: inhibitors of SNCA 5'UTR-driven reporter translation, confirmation, H4 neuroglioma cells, luminescence (AID 1988). It counts as functional, cell-based.
Test [11] is described as follows: inhibitors of intracellular T. cruzi replication, confirmation, NIH3T3 host cells, beta-gal luminescence (AID 2044).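 Also: intracellular parasites grown in NIH/3T3 mouse fibroblasts as host cells; luminescent beta-galactosidase reporter signal from transgenic T. cruzi replicating inside host cells; inhibitors lower the luminescence signal.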 The format is functional, cell-based.
A short description of test [12]: cells.
Test [13] in a line: cytotoxicity toward NIH3T3 fibroblasts, dose response, counter-screen, cell-based, ATP luminescence, mouse fibroblasts (AID 2010).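 Also: cells exposed to compound for about 90 hours before reading.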 The format is functional.
A further test has as its target Melanocortin receptor 4 (Homo sapiens, UniProt P32245). The format is functional, cell-based.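 Also: Cell-based assay with luminescence read-out, confirmatory dose-response testing for agonist activity of biased ligands at MC4R; human U2OS cells with tagged receptor and beta-arrestin; potency of agonists that increase receptor coupling to beta-arrestin.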
In test [14] the target is T3, Long-chain-fatty-acid--AMP ligase FadD28 (Mycobacterium tuberculosis, UniProt P9WQ59).
T3 sequence (P9WQ59 whole entry): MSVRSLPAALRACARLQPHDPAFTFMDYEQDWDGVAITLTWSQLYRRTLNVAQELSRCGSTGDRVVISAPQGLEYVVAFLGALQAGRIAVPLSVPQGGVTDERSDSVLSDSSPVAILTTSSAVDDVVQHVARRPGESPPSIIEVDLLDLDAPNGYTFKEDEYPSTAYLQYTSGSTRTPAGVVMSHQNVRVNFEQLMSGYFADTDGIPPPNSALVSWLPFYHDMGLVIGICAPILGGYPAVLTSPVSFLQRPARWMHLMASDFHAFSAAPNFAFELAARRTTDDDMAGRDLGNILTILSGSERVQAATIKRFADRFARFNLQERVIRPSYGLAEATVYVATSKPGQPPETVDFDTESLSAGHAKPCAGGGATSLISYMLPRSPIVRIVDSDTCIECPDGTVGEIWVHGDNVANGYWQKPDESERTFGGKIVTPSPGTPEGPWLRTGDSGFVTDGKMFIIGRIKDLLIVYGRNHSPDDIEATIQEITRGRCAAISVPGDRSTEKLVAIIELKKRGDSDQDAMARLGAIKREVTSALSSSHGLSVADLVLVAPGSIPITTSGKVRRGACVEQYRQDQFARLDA
As to the kind of experiment: Fluorescence polarization aasay to screen for inhibitors that compete for the binding of FadD28 to a bisubstrate Measured in Biochemical System Using Plate Reader - 2147-01_Inhibitor_Dose_CherryPick_Activity. The format is functional, Mycobacterium tuberculosis H37Rv.

Test [15] is described as follows: cytotoxicity in MIN6 insulinoma cells, dose response, cytotoxicity control, cell-based, mouse insulinoma (AID 2122).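 Also: confirmatory high-throughput counterscreen run to flag cytotoxic compounds; mouse MIN-6 beta cells carrying an insulin promoter eGFP reporter.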 The format is functional.
Test [16] is described as follows: insulin promoter down-regulators in MIN6 cells, imaging, high-content screening, mouse beta cells (AID 1628). It counts as functional.

Sequence of Protein Wnt-3a (P27467 whole entry): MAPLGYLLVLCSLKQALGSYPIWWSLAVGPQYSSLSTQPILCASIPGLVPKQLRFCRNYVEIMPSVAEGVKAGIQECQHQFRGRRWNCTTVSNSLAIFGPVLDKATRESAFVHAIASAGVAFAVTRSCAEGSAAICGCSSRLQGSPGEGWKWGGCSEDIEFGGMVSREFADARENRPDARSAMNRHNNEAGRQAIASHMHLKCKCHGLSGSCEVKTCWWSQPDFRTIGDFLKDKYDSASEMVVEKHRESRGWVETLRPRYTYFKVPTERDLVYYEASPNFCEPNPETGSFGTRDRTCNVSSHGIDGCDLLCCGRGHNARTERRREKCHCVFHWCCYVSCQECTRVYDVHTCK
Sequence of Melanocortin receptor 4 (P32245 whole entry): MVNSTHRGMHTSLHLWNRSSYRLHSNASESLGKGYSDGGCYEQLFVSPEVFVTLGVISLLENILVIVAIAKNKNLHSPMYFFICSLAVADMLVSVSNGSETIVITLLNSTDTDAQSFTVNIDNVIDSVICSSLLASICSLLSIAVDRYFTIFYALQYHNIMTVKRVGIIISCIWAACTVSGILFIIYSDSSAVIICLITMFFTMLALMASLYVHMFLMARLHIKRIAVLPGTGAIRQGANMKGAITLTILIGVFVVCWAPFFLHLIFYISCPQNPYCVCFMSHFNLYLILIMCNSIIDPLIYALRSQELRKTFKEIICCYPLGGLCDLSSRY
Sequence of Phospholipase A2 (P04054 whole entry): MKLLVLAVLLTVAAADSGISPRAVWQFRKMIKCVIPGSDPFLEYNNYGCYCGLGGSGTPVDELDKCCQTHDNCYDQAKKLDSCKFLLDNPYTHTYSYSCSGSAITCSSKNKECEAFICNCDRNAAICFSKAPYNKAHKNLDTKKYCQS

As to `COc1ccc(CN2CCC(C(=O)Nc3ccc(Oc4cccnc4)cc3)CC2)c(C)c1C`, the IC50 at Protein Wnt-3a is 5.34 µM (active); in “cells [4]”, 10.3 µM (active). Further, the AC50 is 12.9 µM (active) in test [1] and 3.68 µM (active) in test [2]. Further, in [3], the EC50 is on record as > 195 µM (not active).
Consider `CCCCn1c(CN(C)Cc2ccccc2)nc2c1c(=O)n(C)c(=O)n2C`, for which the AC50 in [5] is 4.78 µM (active); in test [6] it was 2.08 µM (active); in test [1] it was 68.8 µM (active); in [2], 2.38 µM (active). Also, on Protein Wnt-3a, the IC50 is 4.51 µM (active).
On to `Fc1ccc(C2c3[nH]c4ccccc4c3CCN2Cc2cccn2-c2ncccn2)cc1` (stereo unspecified), for which the CC50 in test [7] is 24 µM (active). Besides, the EC50 in test [8] is 13.1 µM (active); in test [9] it was 14.6 µM (active); in test [10], > 120 µM (not active); in [11], 1.7 µM (active); in test [13], > 60 µM (not active). Further, the IC50 was 15.5 µM (active) at Phospholipase A2, 17.1 µM (active) at Cysteine protease ATG4B, > 25 µM (active) with Vero and 8.94 µM (active) in the test “cells [12]”.
Take `FC(F)(F)c1cccnc1Oc1ccc(C2=NCCS2)cc1`: the EC50 at Melanocortin receptor 4 is > 89.1 µM (inactive).
`COc1ccc(-c2nnn(CC(=O)c3c[nH]c4ccccc34)n2)cc1OC`: the AC50 in [14] is > 100 µM (inactive).
Consider `N=c1c(-c2nc3ccccc3[nH]2)cc(C(=O)c2ccco2)nn1-c1ccccc1`, for which the IC50 at Protein Wnt-3a was 16.8 µM (active).
Regarding `COCCn1c(CN2CCC(Cc3ccccc3)CC2)nc2c1c(=O)n(C)c(=O)n2C`, the IC50 on Protein Wnt-3a is 2.11 µM (active); in test [15] it was 0.355 µM (active); in [16], 0.597 µM (active).
